Measured values as given in ChEMBL document CHEMBL3414492, “Enhancing the cellular anti-proliferation activity of pyridazinones as c-met inhibitors using docking analysis” (Eur J Med Chem, 2015).
One block for each molecule: values may come before it. Activity calls are given as the source filed them. The rule behind the calls is not given here.

Key:
[1] = Inhibition of cell proliferation of human EBC1 cells after 72 hrs by SRB assay; conditions: EBC-1, 72 h
EBC-1 = test: Inhibition of cell proliferation of human EBC1 cells at 10 uM after 72 hrs by SRB assay; assay type: functional
[2] = biological target: T1, Hepatocyte growth factor receptor (Homo sapiens, UniProt P08581); test: Inhibition of recombinant c-Met (unknown origin) at 10 uM using poly (Glu,Tyr)4:1 substrate incubated for 60 mins by ELISA method
[3] = biological target: T1, Hepatocyte growth factor receptor; test: Inhibition of recombinant c-Met (unknown origin) using poly (Glu,Tyr)4:1 substrate incubated for 60 mins by ELISA method
SNU1 = test: Inhibition of cell proliferation of human SNU1 cells after 72 hrs by SRB assay; conditions: SNU1, 72 h
[4] = Inhibition of cell proliferation of human SNU5 cells after 72 hrs by SRB assay; conditions: SNU-5, 72 h
[5] = Inhibition of cell proliferation of human MKN45 cells after 72 hrs by SRB assay; conditions: MKN-45, 72 h
NCI-H661 = test: Inhibition of cell proliferation of human NCI-H661 cells after 72 hrs by SRB assay; conditions: NCI-H661, 72 h
NCI-H460 [6] = test: Selectivity index, ratio of IC50 for human NCI-H460 cells to IC50 for human EBC1 cells; assay type: functional
SNU-5 [7] = test: Selectivity index, ratio of IC50 for human NCI-H661 cells to IC50 for human SNU5 cells; assay type: functional
[8] = biological target: Receptor tyrosine-protein kinase erbB-4 (Homo sapiens, UniProt Q15303); test: Inhibition of ERBB4 (unknown origin)
[9] = biological target: Tyrosine-protein kinase receptor UFO (Homo sapiens, UniProt P30530); test: Inhibition of AXL (unknown origin)
NCI-H358 [10] = test: Selectivity index, ratio of IC50 for human NCI-H358 cells to IC50 for human EBC1 cells; assay type: functional
NCI-H358 [11] = test: Selectivity index, ratio of IC50 for human NCI-H358 cells to IC50 for human MKN45 cells; assay type: functional
Ephrin type-A receptor 2 = Ephrin type-A receptor 2 (Homo sapiens, UniProt P29317); test: Inhibition of EPHA2 (unknown origin)
[12] = biological target: Macrophage-stimulating protein receptor (Homo sapiens, UniProt Q04912); test: Inhibition of RON (unknown origin)
NCI-H460 [13] = test: Inhibition of cell proliferation of human NCI-H460 cells after 72 hrs by SRB assay; assay type: functional, cell-based; conditions: NCI-H460, 72 h
MKN-45 [14] = test: Selectivity index, ratio of IC50 for human PC3 cells to IC50 for human MKN45 cells; assay type: functional
[15] = biological target: ALK tyrosine kinase receptor (Homo sapiens, UniProt Q9UM73); test: Inhibition of ALK (unknown origin)
MKN-45 [16] = test: Selectivity index, ratio of IC50 for human NCI-H520 cells to IC50 for human MKN45 cells; assay type: functional
[17] = Inhibition of cell proliferation of human PC3 cells after 72 hrs by SRB assay; assay type: functional, cell-based; conditions: PC-3, 72 h
A549 [18] = test: Inhibition of cell proliferation of human A549 cells after 72 hrs by SRB assay; assay type: functional, cell-based; conditions: A549, 72 h
NCI-H460 [19] = test: Selectivity index, ratio of IC50 for human NCI-H460 cells to IC50 for human MKN45 cells; assay type: functional
[20] = Selectivity index, ratio of IC50 for human PC3 cells to IC50 for human EBC1 cells; assay type: functional
[21] = biological target: Insulin-like growth factor 1 receptor (Homo sapiens, UniProt P08069); test: Inhibition of IGF1R (unknown origin)
NCI-H358 [22] = test: Selectivity index, ratio of IC50 for human NCI-H358 cells to IC50 for human SNU5 cells; assay type: functional
[23] = biological target: Vascular endothelial growth factor receptor 1 (Homo sapiens, UniProt P17948); test: Inhibition of FLT1 (unknown origin)
[24] = biological target: Fibroblast growth factor receptor 1 (Homo sapiens, UniProt P11362); test: Inhibition of FGFR1 (unknown origin)
[25] = Inhibition of cell proliferation of human SNU16 cells after 72 hrs by SRB assay; assay type: functional, cell-based; conditions: SNU-16, 72 h
SNU-5 [26] = test: Selectivity index, ratio of IC50 for human PC3 cells to IC50 for human SNU5 cells; assay type: functional
MKN-45 [27] = test: Selectivity index, ratio of IC50 for human NCI-H661 cells to IC50 for human MKN45 cells; assay type: functional
[28] = biological target: Tyrosine-protein kinase receptor TYRO3 (Homo sapiens, UniProt Q06418); test: Inhibition of TYRO3 (unknown origin)
A549 [29] = test: Selectivity index, ratio of IC50 for human A549 cells to IC50 for human EBC1 cells; assay type: functional
[30] = biological target: Epidermal growth factor receptor (Homo sapiens, UniProt P00533, L858R/T790M); test: Inhibition of EGFR T790M/L858R mutant (unknown origin); assay type: protein assay
[31] = Selectivity index, ratio of IC50 for human NCI-H520 cells to IC50 for human EBC1 cells; assay type: functional
SNU-16 [32] = test: Selectivity index, ratio of IC50 for human SNU16 cells to IC50 for human EBC1 cells; assay type: functional
[33] = biological target: T1, Hepatocyte growth factor receptor; test: Inhibition of c-Met Y1234/1235 phosphorylation in human EBC1 cells at 0.1 uM incubated for 2 hrs by Western blot method; assay type: cell-based
[34] = Selectivity index, ratio of IC50 for human NCI-H661 cells to IC50 for human EBC1 cells; assay type: functional
[35] = biological target: Epidermal growth factor receptor (Homo sapiens, UniProt P00533); test: Inhibition of EGFR (unknown origin)
SNU-16 [36] = test: Selectivity index, ratio of IC50 for human SNU16 cells to IC50 for human MKN45 cells; assay type: functional
[37] = biological target: T1, Hepatocyte growth factor receptor; test: Inhibition of c-Met in human EBC1 cells assessed as reduction in Akt S473 phosphorylation at 11 nM to 100 nM incubated for 2 hrs by Western blot method; assay type: cell-based
[38] = biological target: T1, Hepatocyte growth factor receptor; test: Inhibition of c-Met in human EBC1 cells assessed as reduction in ERK T202/Y204 phosphorylation at 11 nM to 100 nM incubated for 2 hrs by Western blot method; assay type: cell-based
[39] = biological target: T1, Hepatocyte growth factor receptor; test: Inhibition of c-Met Y1234/1235 phosphorylation in human EBC1 cells at 11 nM to 100 nM incubated for 2 hrs by Western blot method; assay type: cell-based
NCI-H460 [40] = test: Selectivity index, ratio of IC50 for human NCI-H460 cells to IC50 for human SNU5 cells; assay type: functional
SNU-5 [41] = test: Selectivity index, ratio of IC50 for human NCI-H520 cells to IC50 for human SNU5 cells; assay type: functional
A549 [42] = test: Selectivity index, ratio of IC50 for human A549 cells to IC50 for human SNU5 cells; assay type: functional
A549 [43] = test: Selectivity index, ratio of IC50 for human A549 cells to IC50 for human MKN45 cells; assay type: functional
[44] = biological target: Platelet-derived growth factor receptor beta (Homo sapiens, UniProt P09619); test: Inhibition of PDGFRbeta (unknown origin)
NCI-H358 [45] = test: Inhibition of cell proliferation of human NCI-H358 cells after 72 hrs by SRB assay; assay type: functional, cell-based; conditions: NCI-H358, 72 h
NCI-H520 = test: Inhibition of cell proliferation of human NCI-H520 cells after 72 hrs by SRB assay; assay type: functional, cell-based; conditions: NCI-H520, 72 h
SNU-16 [46] = test: Selectivity index, ratio of IC50 for human SNU16 cells to IC50 for human SNU5 cells; assay type: functional

Structure (SMILES): CN1CCN(CCCCOC(=O)Nc2cccc(Cn3nc(-n4ccc5ccc(F)cc54)ccc3=O)c2)CC1
IC50 [1]: ≤ 0.1 µM

Structure (SMILES): CN(C)CCCCOC(=O)Nc1cccc(Cn2nc(Nc3ccccc3F)ccc2=O)c1
inhibition (EBC-1): inactive

Structure (SMILES): CN(C)CCCCOC(=O)Nc1cccc(Cn2nc(Nc3ccc(F)cc3)ccc2=O)c1
inhibition (EBC-1): inactive

Structure (SMILES): CN1CCN(CCCOc2cnc(-c3cccc(Cn4nc(-n5ccc6ccc(F)cc65)ccc4=O)c3)nc2)CC1
IC50 [1]: 0.198 µM

Structure (SMILES): CN1CCN(CCOc2cnc(-c3cccc(Cn4nc(-n5ccc6ccc(F)cc65)ccc4=O)c3)nc2)CC1
IC50 [1]: 0.13 µM

inhibition [2]: 55.5%
Structure (SMILES): Cc1ccc(Nc2ccc(=O)n(Cc3cccc(NC(=O)OCCCCN(C)C)c3)n2)cc1
inhibition (EBC-1): inactive

IC50 [3]: > 10 µM
Structure (SMILES): Cc1ccccc1Nc1ccc(=O)n(Cc2ccc(NC(=O)OCCCCN(C)C)cc2)n1

Structure (SMILES): O=C(Nc1cccc(Cn2nc(-n3ccc4ccc(F)cc43)ccc2=O)c1)OCCCCN1CCOCC1
IC50 [1]: ≤ 1 µM

IC50 (SNU1): 3.9 µM | IC50 (NCI-H661): 1.6 µM
Structure (SMILES): CN1CCN(CCCOC(=O)Nc2cccc(Cn3nc(-n4ccc5ccc(F)cc54)ccc3=O)c2)CC1
IC50 [1]: ≤ 0.1 µM | IC50 [4]: 1.2 µM | IC50 [5]: 0.7 µM

Structure (SMILES): CN1CCN(CCCCCOC(=O)Nc2cccc(Cn3nc(-n4ccc5ccc(F)cc54)ccc3=O)c2)CC1
IC50 [1]: ≤ 1 µM

Structure (SMILES): COCCCOc1cnc(-c2cccc(Cn3nc(-n4ccc5ccc(F)cc54)ccc3=O)c2)nc1
IC50 [1]: 0.272 µM

Structure (SMILES): CN(C)CCCCOC(=O)Nc1cccc(Cn2nc(Nc3cccc(C(F)(F)F)c3)ccc2=O)c1
inhibition (EBC-1): inactive

Structure (SMILES): CN(C)CCCOC(=O)Nc1cccc(Cn2nc(-n3ccc4ccc(F)cc43)ccc2=O)c1
IC50 [1]: ≤ 1 µM

Structure (SMILES): CN(C)CCCCOC(=O)Nc1cccc(Cn2nc(Nc3ccc(C(F)(F)F)cc3)ccc2=O)c1
inhibition (EBC-1): inactive

Structure (SMILES): Cc1cccc(Nc2ccc(=O)n(Cc3cccc(NC(=O)OCCCCN(C)C)c3)n2)c1
inhibition (EBC-1): inactive

Structure (SMILES): CN(C)CCCCOC(=O)Nc1cccc(Cn2nc(Nc3cccc(F)c3)ccc2=O)c1
inhibition (EBC-1): inactive

IC50 [8]: > 1 µM | IC50 [9]: > 1 µM | IC50 (Ephrin type-A receptor 2): > 1 µM | IC50 [12]: > 1 µM | IC50 (NCI-H460 [13]): > 10 µM | IC50 [15]: > 1 µM | IC50 (A549 [18]): > 10 µM | IC50 [21]: > 1 µM | IC50 [23]: > 1 µM | IC50 [24]: > 1 µM | IC50 [28]: > 1 µM | IC50 [30]: > 1 µM | IC50 [3]: 0.0042 µM | inhibition [33]: Active | IC50 [35]: > 1 µM | inhibition [37]: Active | inhibition [38]: Active | inhibition [39]: Dose-dependent effect | IC50 (NCI-H661): > 10000 µM | IC50 [44]: > 1 µM | IC50 (NCI-H358 [45]): > 10 µM | IC50 (NCI-H520): > 10 µM
Structure (SMILES): O=c1ccc(-n2ccc3ccc(F)cc32)nn1CCOc1ccnc2cc(OCCCN3CCOCC3)ccc12
Ratio IC50 (NCI-H460 [6]): 100 | Ratio IC50 (SNU-5 [7]): 100 | Ratio IC50 (NCI-H358 [10]): 100 | Ratio IC50 (NCI-H358 [11]): 100 | Ratio IC50 (MKN-45 [14]): > 100 | Ratio IC50 (MKN-45 [16]): 100 | IC50 [17]: > 10 µM | Ratio IC50 (NCI-H460 [19]): 100 | Ratio IC50 [20]: 100 | Ratio IC50 (NCI-H358 [22]): 100 | IC50 [1]: 0.0172 µM | IC50 [25]: > 10 µM | Ratio IC50 (SNU-5 [26]): > 100 | Ratio IC50 (MKN-45 [27]): 100 | IC50 [4]: 88.1 µM | Ratio IC50 (A549 [29]): 100 | Ratio IC50 [31]: 100 | IC50 [5]: 60.7 µM | Ratio IC50 (SNU-16 [32]): > 100 | Ratio IC50 [34]: 100 | Ratio IC50 (SNU-16 [36]): > 100 | Ratio IC50 (NCI-H460 [40]): 100 | Ratio IC50 (SNU-5 [41]): 100 | Ratio IC50 (A549 [42]): 100 | Ratio IC50 (A549 [43]): 100 | Ratio IC50 (SNU-16 [46]): > 100
